The values that follow come from patent US20130052162A1, “BOOSTING IMMUNE DEFENSE BY UPREGULATING CCAAT/ENHANCER BINDING PROTEIN EPSILON” (CEDARS-SINAI MEDICAL CENTER, priority 2010, published 2013).

“Also recorded” adds a separate entry of the source.

The conditions of data set [1]: human trials, patients undergoing radiotherapy; cited from earlier work.
The next data set deals with LF-promoter. In words: LF reporter gene (LAC-LUC) luciferase assay in U937 cells. The conditions noted are these: 1 mM NAM, 16 h, vs PBS. Format: cell-based, human. The procedure: The inventors designed a −230 LF promoter reporter plasmid (LAC-LUC) including a C/EBP-binding site as previously described^15. For the reporter gene assay, 2×10^6 […] cells were transiently transfected either with 2 μg of the LAC-LUC luciferase reporter gene constructs or the empty-vector control (pGL3, Promega, Madison, Wis., USA), as well as 0.2 μg of Renilla luciferase (pRL-SV40). Transfections were performed using the nucleofection technique with the Amaxa-Kit (Invitrogen, Karlsruhe, Germany) according to the manufacturer's instructions. After 16 h of transfection, the cells were treated with NAM (1 mM) for an additional 16 h. The lysates were harvested and luciferase activity measured by the Dual-Luciferase reporter assay system (Promega, Madison, Wis., USA). For all transfection studies, luciferase activity was normalized using pRL-SV40 activity. Results represent the mean of three independent experiments performed in triplicate.
Background: A reporter such as luciferase makes a cellular process visible.

In data set [2] the test system is S. aureus. In words: Murine systemic (i.p.) S. aureus infection. It is filed as in vivo, mouse. The conditions noted are these: 250 mg/kg i.p. daily from 24 h before infection, 48 h p.i. As to the method:
Following euthanization of mice on the specified day, infected skin lesion tissue was aseptically excised, and thoroughly homogenized and mixed in 1 mL of PBS as previously shown^43. Ten-fold serial dilutions of the homogenates were plated on THA for CFU determination. The spleen and both kidneys were aseptically removed from each animal and processed in the same way. When required, the appropriate homogenized suspensions (skin lesions) were centrifuged at 15,000 g for 10 min and supernatants stored at −80° C. for subsequent analysis by ELISA.
Mice were systemically infected by intraperitoneal (i.p.) injection of 1×10^7 CFU/mL S. aureus for 48 h. Following euthanasia, the spleen and both kidneys were removed for CFU determination.

Data set [3] has as its system CEBPE promoter region. In words: ChIP: histone H3 acetylation at CEBPE promoter in BMMC. The note with it: WT BMMC, 1 mM NAM, 12 h, vs untreated. It is filed as cell-based, mouse. The procedure:
(§1) ChIP assay kit (Upstate Biotechnology, Lake Placid, N.Y.) was used, and chromatin was prepared for IP as instructed by the manufacturer. The sonicated chromatin was immunoprecipitated with either 5 μg of anti-acetylated histone H3 antibody or normal rabbit IgG antibody as negative control (Upstate Biotechnology). Immunoprecipitated DNA was subsequently analyzed by PCR using primers specific for the CEBPE promoter region; input chromatin was analyzed for β-actin mRNA as a positive control. The optimal reaction conditions for PCR were determined for each primer pair. Primers were denatured at 95° C. for 1 min and annealed at 60° C. for 1 min, followed by elongation at 72° C. for 1 min; each product was amplified 35 cycles. PCR products were analyzed by 2.5% agarose/ethidium bromide gel electrophoresis. […] The primers used for ChIP analysis were: human CEBPE 5′-GCTTTGGCCAAGCCCAGGGA-3′ (forward) (SEQ ID NO: 9), 5′-TGCTGGGCTCCACCTACCCC-3′ (reverse) (SEQ ID NO: 10); human β-actin: 5′-CTCCTCGGGAGCCACACGCA-3′ (forward) (SEQ ID NO: 1), 5′-TAGGGGAGCTGGCTGGGTGG-3′ (reverse) (SEQ ID NO: 12); murine CEBPE: 5′-TGAGGCTGCAGCTTGCCTGG-3′ (forward) (SEQ ID NO: 13), 5′-ACCAAGCTACCCCTGGCCCT-3′ (reverse) (SEQ ID NO: 14), murine β-actin: 5′-ACCTGTTACTTTGGGAGTGGCAAGC-3′ (forward) (SEQ ID NO: 15), 5′-GTCGTCCCAGTTGCTAACAATGCC-3′ (reverse) (SEQ ID NO: 16).

A further data set concerns K. pneumoniae. The data set can be described thus: Human peripheral whole blood killing assay, K. pneumoniae. It is filed as cell-based. The note with it: NAM-pretreated human blood, 3 h of infection. As to the method:
This well described phagocytic survival assay has been previously reported^42. Bacteria was pelleted, washed twice, diluted to the specified inoculum in 25 μl PBS (without Ca^2+ and Mg^2+), and immediately mixed with 75 μl of freshly drawn human or murine peripheral whole blood in sterile heparinized 2 mL round-bottom Eppendorf tubes. When required, murine plasma was obtained by centrifugation of heparinized whole blood at 2000×g for 15 min at RT. Reactions (performed in minimum in triplicate) were incubated at 37° C. for 1-3 h on a rotary shaker, at which time ten-fold serial dilutions were plated on THA for enumeration of surviving CFU.
When required, freshly drawn human or murine peripheral blood was pretreated with NAM (˜0.1 mM or ˜10 mM) or PBS (without Ca^2+ and Mg^2+), prior to inoculation with bacteria.
Participants in the inventors' study included 15 healthy humans with a negative history of infection or antibiotic treatments in the prior 4 weeks. Peripheral blood was collected from individuals in a fasting condition. Polymorph-prep (Axis-Shield, Oslo, Norway) was used for the isolation of PMNs according to the manufacturer's protocol.

Data set [4] deals with CEBPE promoter region. The data set can be described thus: ChIP: histone H3 acetylation at CEBPE promoter in human PMNs from NAM-treated blood. Format: cell-based. The conditions noted are these: blood treated with 1 mM NAM, 12 h. As to the method: as §1, with “16). […]” for “16).”
Data set [5] relates to S. aureus. The data set can be described thus: Human peripheral whole blood killing assay, S. aureus. It is filed as cell-based.
The subject of data set [6] is CEBPE promoter region. The data set can be described thus: ChIP: histone H3 acetylation at CEBPE promoter in BMDM. It is filed as cell-based, mouse. The conditions noted are these: WT BMDM, 1 mM NAM, 6-12 h, vs untreated, densitometry. As to the method: as §1

In the case of `NC(=O)c1cccnc1` [NAM, Nicotinamide], in data set [1], the “plasma concentration routinely achieved” value is 1000 µM. Further, the “increase in LF reporter gene activity” value with LF-promoter stood at 2.5 fold. Further, in the data set on S. aureus [2] (C/EBPε−/− mice), the “bacterial CFU recovered from spleens and kidneys vs PBS” value is on record as “no impact”. Moreover, the “lower S. aureus CFU in spleens and kidneys vs PBS” value in the data set on S. aureus [2] (WT mice) is recorded as “approximately 2 logic”. For the same compound, the “increase in histone acetylation at the CEBPE promoter” value in the data set with CEBPE promoter region [3] came to 3 fold. In the data set on K. pneumoniae, the “K. pneumoniae CFU recovered / outcome, NAM- vs PBS-treated blood” value is on record as “improved the outcome of infection; also recorded: Significantly less CFU”. In addition, the “increase in histone H3 acetylation at the CEBPE promoter” value with CEBPE promoter region [4] and in the data set with CEBPE promoter region [6] was 5 fold throughout. The “CFU recovered, NAM- vs PBS-treated blood” value in the data set on S. aureus [5] (NAM 1 mM or 10 mM 24 h, 1 h and 3 h of infection) was “Significantly less CFU”. The “reduction of S. aureus survival in whole blood vs PBS” value with S. aureus [5] (NAM 1 mM or 10 mM 24 h pretreatment, 3 h p.i.) is 2-3 log10.
